Test results as given in patent US11878013B2, “Isoquinoline derivative, preparing method thereof, and pharmaceutical composition for preventing or treating autophagy related diseases containing the same as an active ingredient” (Korea Research Institute of Chemical Technology, priority 2021, dated 2024).

Biological target: T1, hERG channel protein (Homo sapiens, UniProt Q12809)
T1 construct: expressed in transfected cells; host or cells: HEK-293
Experiment: hERG patch clamp test in HEK-293 cells overexpressing hERG
Assay type: cell-based
Details: at 10 μM
Experimental: In order to evaluate the possibility of inducing cardiotoxicity of the compound of Example 1 of the present invention in vivo, the inhibitory potential to the hERG (human ether-a-go-go related gene) K^+ channel protein, known as a main cause of arrhythmias, was tested.
Next, in order to evaluate the activity of the hERG channel protein using an electrophysiological method, a patch clamp test was performed. The activity of the hERG channel protein was measured using the HEK-293 cell line overexpressing the hERG channel protein. The cells were acclimatized and cultured in a humidified 37° C. 5% CO2 incubator, washed with PBS (phosphate buffer solution) at the time of growth that occupies 70-80% of the culture dish every 2-3 days, and then subcultured by treating with Trypsin-EDTA. For the test, 2×10^5 cells were aliquoted in a 60 mm cell culture dish, and then cultured in a humidified 5% CO2 incubator for 48 hours. The cultured cells were detached by treating Trypsin-EDTA (Gibco, USA), and the flow of K^+ by the hERG channel protein was measured by applying an automated patch clamp equipment (PatchXpress, Molecular Device).

T1 sequence (Q12809 whole entry): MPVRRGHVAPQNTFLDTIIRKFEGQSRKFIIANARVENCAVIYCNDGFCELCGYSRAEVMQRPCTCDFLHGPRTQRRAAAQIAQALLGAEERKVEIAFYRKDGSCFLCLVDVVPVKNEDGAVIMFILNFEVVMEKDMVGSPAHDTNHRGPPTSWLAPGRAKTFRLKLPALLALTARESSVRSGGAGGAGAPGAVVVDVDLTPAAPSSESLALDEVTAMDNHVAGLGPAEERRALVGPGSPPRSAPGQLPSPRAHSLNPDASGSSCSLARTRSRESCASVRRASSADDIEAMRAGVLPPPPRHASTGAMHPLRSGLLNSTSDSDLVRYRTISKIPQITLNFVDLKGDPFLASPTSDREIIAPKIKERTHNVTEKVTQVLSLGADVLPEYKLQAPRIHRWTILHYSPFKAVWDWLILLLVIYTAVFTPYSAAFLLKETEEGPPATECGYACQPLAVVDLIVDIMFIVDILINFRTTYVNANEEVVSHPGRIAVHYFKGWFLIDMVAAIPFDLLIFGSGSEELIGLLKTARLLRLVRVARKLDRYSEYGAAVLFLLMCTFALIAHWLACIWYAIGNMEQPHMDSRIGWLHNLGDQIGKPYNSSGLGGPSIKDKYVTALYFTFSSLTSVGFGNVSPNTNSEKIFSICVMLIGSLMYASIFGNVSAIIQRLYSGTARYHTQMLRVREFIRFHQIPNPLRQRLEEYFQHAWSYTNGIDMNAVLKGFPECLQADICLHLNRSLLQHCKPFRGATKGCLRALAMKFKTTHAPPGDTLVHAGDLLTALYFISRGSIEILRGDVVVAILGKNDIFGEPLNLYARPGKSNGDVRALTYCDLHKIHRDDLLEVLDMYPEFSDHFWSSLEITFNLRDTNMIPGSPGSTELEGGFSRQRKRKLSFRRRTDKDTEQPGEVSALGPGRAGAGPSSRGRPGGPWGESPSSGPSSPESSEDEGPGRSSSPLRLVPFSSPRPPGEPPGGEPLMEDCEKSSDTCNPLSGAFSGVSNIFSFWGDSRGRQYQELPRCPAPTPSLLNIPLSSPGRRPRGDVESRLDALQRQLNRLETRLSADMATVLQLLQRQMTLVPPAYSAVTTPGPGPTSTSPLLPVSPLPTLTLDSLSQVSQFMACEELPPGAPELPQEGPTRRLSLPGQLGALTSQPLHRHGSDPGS

## [O-][S+](c1ccc(F)cc1)c1nccc2ccccc12 (stereo not shown) [Example 1, 1-((4-Fluorophenyl)Sulfinyl)Isoquinoline]
  inhibition of the activity of the hERG channel protein: about 10%
